These compounds were tested on HEL (assay: cell viability (% survival relative to DMSO control, bortezomib = 0%); higher = less cytotoxic). Settings: 100 nM; 72 h.
In short: (§1)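 Percent survival figures are means of duplicate wells. They were obtained by CellTiter-Glo luminescence after 10 AML and 5 CML cell lines spent 72 h at 37 °C with 5% CO2 in 384-well plates with compounds at 1, 10, 100, 1000 or 10000 nM. Vehicle was set to 100% and a 10 µM positive control to 0%.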
Work on `O=C(C1CC1)N1CC[C@@H](C=C2NNC(=O)N2c2ccc(-c3ccc4occc4c3)cc2)C1` yielded a cell viability of 107%.
`CCCCCCCCCCCC(=O)c1c(O)c(C(=O)CCCCCCCCCCC)c(O)c(C2CC(c3ccc(O)cc3)Oc3cc(O)ccc32)c1O` (stereo not given) was tested, and the cell viability was 115%.
In the case of `NC(=O)c1cccc(-c2cccc(OC(=O)NC3CCCCC3)c2)c1` [URB-597], the cell viability is reported as 103%.
For `O=C1O[C@H]([C@@H](O)CO)C(O)=C1O` [Vitamin C (ascorbate)], the cell viability was 98.9%.

Same assay, conditions: 1000 nM; 72 h
`O=C(O)C[C@@]1(O)C[C@@H](CCCCCCc2ccc(Cl)cc2Cl)OC1=O` was tested, and the cell viability was 89.2%.
`O=C(NCCCCCCNC(=O)ONC1=CCCCC1)ONC1=CCCCC1` showed a cell viability of 113%.
With `O=C(C1CC1)N1CC[C@@H](C=C2NNC(=O)N2c2ccc(-c3ccc4occc4c3)cc2)C1` the cell viability was 101%.
With `CCCCCCCCCCCC(=O)c1c(O)c(C(=O)CCCCCCCCCCC)c(O)c(C2CC(c3ccc(O)cc3)Oc3cc(O)ccc32)c1O` (stereo not given) the cell viability was 110%.
Compound `NC(=O)c1cccc(-c2cccc(OC(=O)NC3CCCCC3)c2)c1` [URB-597] has a cell viability of 110%.
In the case of `O=C1O[C@H]([C@@H](O)CO)C(O)=C1O` [Vitamin C (ascorbate)], the cell viability is reported as 107%.

Same assay, conditions: 10000 nM; 72 h
`O=C(O)C[C@@]1(O)C[C@@H](CCCCCCc2ccc(Cl)cc2Cl)OC1=O` gave a cell viability of 95.6%.
In the case of `O=C(NCCCCCCNC(=O)ONC1=CCCCC1)ONC1=CCCCC1`, the cell viability is reported as 90.9%.
For `O=C(C1CC1)N1CC[C@@H](C=C2NNC(=O)N2c2ccc(-c3ccc4occc4c3)cc2)C1`, the cell viability was 78.5%.
For `CCCCCCCCCCCC(=O)c1c(O)c(C(=O)CCCCCCCCCCC)c(O)c(C2CC(c3ccc(O)cc3)Oc3cc(O)ccc32)c1O` (stereo not given), the cell viability was 87%.
`NC(=O)c1cccc(-c2cccc(OC(=O)NC3CCCCC3)c2)c1` [URB-597] showed a cell viability of 95.2%.
`O=C1O[C@H]([C@@H](O)CO)C(O)=C1O` [Vitamin C (ascorbate)] showed a cell viability of 113%.

These compounds were tested on THP-1 in the same assay as above. Settings: 1 nM; 72 h.
In short: as §1
Work on `O=C(O)C[C@@]1(O)C[C@@H](CCCCCCc2ccc(Cl)cc2Cl)OC1=O` yielded a cell viability of 103%.
`O=C(NCCCCCCNC(=O)ONC1=CCCCC1)ONC1=CCCCC1` was tested, and the cell viability was 89.4%.
For `O=C(C1CC1)N1CC[C@@H](C=C2NNC(=O)N2c2ccc(-c3ccc4occc4c3)cc2)C1`, the cell viability was 98.7%.
`CCCCCCCCCCCC(=O)c1c(O)c(C(=O)CCCCCCCCCCC)c(O)c(C2CC(c3ccc(O)cc3)Oc3cc(O)ccc32)c1O` (stereo not given) gave a cell viability of 101%.
With `NC(=O)c1cccc(-c2cccc(OC(=O)NC3CCCCC3)c2)c1` [URB-597] the cell viability was 98.5%.
Work on `O=C1O[C@H]([C@@H](O)CO)C(O)=C1O` [Vitamin C (ascorbate)] yielded a cell viability of 96.4%.

Same assay, conditions: 10 nM; 72 h
`O=C(O)C[C@@]1(O)C[C@@H](CCCCCCc2ccc(Cl)cc2Cl)OC1=O` was tested, and the cell viability was 97%.
`O=C(NCCCCCCNC(=O)ONC1=CCCCC1)ONC1=CCCCC1` was tested, and the cell viability was 114%.
For `O=C(C1CC1)N1CC[C@@H](C=C2NNC(=O)N2c2ccc(-c3ccc4occc4c3)cc2)C1`, the cell viability was 93.3%.
Work on `CCCCCCCCCCCC(=O)c1c(O)c(C(=O)CCCCCCCCCCC)c(O)c(C2CC(c3ccc(O)cc3)Oc3cc(O)ccc32)c1O` (stereo not given) yielded a cell viability of 114%.
With `NC(=O)c1cccc(-c2cccc(OC(=O)NC3CCCCC3)c2)c1` [URB-597] the cell viability was 93.8%.
In the case of `O=C1O[C@H]([C@@H](O)CO)C(O)=C1O` [Vitamin C (ascorbate)], the cell viability is reported as 100%.

Same assay, conditions: 100 nM; 72 h
For `O=C(O)C[C@@]1(O)C[C@@H](CCCCCCc2ccc(Cl)cc2Cl)OC1=O`, the cell viability was 103%.
`O=C(NCCCCCCNC(=O)ONC1=CCCCC1)ONC1=CCCCC1` was tested, and the cell viability was 109%.
Compound `O=C(C1CC1)N1CC[C@@H](C=C2NNC(=O)N2c2ccc(-c3ccc4occc4c3)cc2)C1` has a cell viability of 104%.
`CCCCCCCCCCCC(=O)c1c(O)c(C(=O)CCCCCCCCCCC)c(O)c(C2CC(c3ccc(O)cc3)Oc3cc(O)ccc32)c1O` (stereo not given) showed a cell viability of 107%.
With `NC(=O)c1cccc(-c2cccc(OC(=O)NC3CCCCC3)c2)c1` [URB-597] the cell viability was 105%.
With `O=C1O[C@H]([C@@H](O)CO)C(O)=C1O` [Vitamin C (ascorbate)] the cell viability was 103%.

Same assay, conditions: 1000 nM; 72 h
`O=C(O)C[C@@]1(O)C[C@@H](CCCCCCc2ccc(Cl)cc2Cl)OC1=O` was tested, and the cell viability was 99.7%.
`O=C(NCCCCCCNC(=O)ONC1=CCCCC1)ONC1=CCCCC1` gave a cell viability of 97.4%.
In the case of `O=C(C1CC1)N1CC[C@@H](C=C2NNC(=O)N2c2ccc(-c3ccc4occc4c3)cc2)C1`, the cell viability is reported as 103%.
Work on `CCCCCCCCCCCC(=O)c1c(O)c(C(=O)CCCCCCCCCCC)c(O)c(C2CC(c3ccc(O)cc3)Oc3cc(O)ccc32)c1O` (stereo not given) yielded a cell viability of 104%.
`NC(=O)c1cccc(-c2cccc(OC(=O)NC3CCCCC3)c2)c1` [URB-597] was tested, and the cell viability was 99.1%.
With `O=C1O[C@H]([C@@H](O)CO)C(O)=C1O` [Vitamin C (ascorbate)] the cell viability was 103%.

Same assay, conditions: 10000 nM; 72 h
For `O=C(O)C[C@@]1(O)C[C@@H](CCCCCCc2ccc(Cl)cc2Cl)OC1=O`, the cell viability was 90.3%.
Work on `O=C(NCCCCCCNC(=O)ONC1=CCCCC1)ONC1=CCCCC1` yielded a cell viability of 100%.
Compound `O=C(C1CC1)N1CC[C@@H](C=C2NNC(=O)N2c2ccc(-c3ccc4occc4c3)cc2)C1` has a cell viability of 101%.
Work on `CCCCCCCCCCCC(=O)c1c(O)c(C(=O)CCCCCCCCCCC)c(O)c(C2CC(c3ccc(O)cc3)Oc3cc(O)ccc32)c1O` (stereo not given) yielded a cell viability of 102%.
Work on `NC(=O)c1cccc(-c2cccc(OC(=O)NC3CCCCC3)c2)c1` [URB-597] yielded a cell viability of 102%.
`O=C1O[C@H]([C@@H](O)CO)C(O)=C1O` [Vitamin C (ascorbate)] showed a cell viability of 99.9%.

These compounds were tested on HL-60 in the same assay as above. Settings: 1 nM; 72 h.
In short: as §1
`O=C(O)C[C@@]1(O)C[C@@H](CCCCCCc2ccc(Cl)cc2Cl)OC1=O` was tested, and the cell viability was 97.1%.
`O=C(NCCCCCCNC(=O)ONC1=CCCCC1)ONC1=CCCCC1` gave a cell viability of 106%.
Work on `O=C(C1CC1)N1CC[C@@H](C=C2NNC(=O)N2c2ccc(-c3ccc4occc4c3)cc2)C1` yielded a cell viability of 101%.
Work on `CCCCCCCCCCCC(=O)c1c(O)c(C(=O)CCCCCCCCCCC)c(O)c(C2CC(c3ccc(O)cc3)Oc3cc(O)ccc32)c1O` (stereo not given) yielded a cell viability of 118%.
`NC(=O)c1cccc(-c2cccc(OC(=O)NC3CCCCC3)c2)c1` [URB-597] showed a cell viability of 98.7%.
Compound `O=C1O[C@H]([C@@H](O)CO)C(O)=C1O` [Vitamin C (ascorbate)] has a cell viability of 104%.

Same assay, conditions: 10 nM; 72 h
Compound `O=C(O)C[C@@]1(O)C[C@@H](CCCCCCc2ccc(Cl)cc2Cl)OC1=O` has a cell viability of 123%.
Work on `O=C(NCCCCCCNC(=O)ONC1=CCCCC1)ONC1=CCCCC1` yielded a cell viability of 107%.
`O=C(C1CC1)N1CC[C@@H](C=C2NNC(=O)N2c2ccc(-c3ccc4occc4c3)cc2)C1` showed a cell viability of 66.7%.
With `CCCCCCCCCCCC(=O)c1c(O)c(C(=O)CCCCCCCCCCC)c(O)c(C2CC(c3ccc(O)cc3)Oc3cc(O)ccc32)c1O` (stereo not given) the cell viability was 119%.
With `NC(=O)c1cccc(-c2cccc(OC(=O)NC3CCCCC3)c2)c1` [URB-597] the cell viability was 89.2%.
With `O=C1O[C@H]([C@@H](O)CO)C(O)=C1O` [Vitamin C (ascorbate)] the cell viability was 91.2%.

Same assay, conditions: 100 nM; 72 h
Compound `O=C(O)C[C@@]1(O)C[C@@H](CCCCCCc2ccc(Cl)cc2Cl)OC1=O` has a cell viability of 100%.
With `O=C(NCCCCCCNC(=O)ONC1=CCCCC1)ONC1=CCCCC1` the cell viability was 124%.
`O=C(C1CC1)N1CC[C@@H](C=C2NNC(=O)N2c2ccc(-c3ccc4occc4c3)cc2)C1` gave a cell viability of 48.4%.
`CCCCCCCCCCCC(=O)c1c(O)c(C(=O)CCCCCCCCCCC)c(O)c(C2CC(c3ccc(O)cc3)Oc3cc(O)ccc32)c1O` (stereo not given) showed a cell viability of 70.4%.
`NC(=O)c1cccc(-c2cccc(OC(=O)NC3CCCCC3)c2)c1` [URB-597] showed a cell viability of 114%.
`O=C1O[C@H]([C@@H](O)CO)C(O)=C1O` [Vitamin C (ascorbate)] gave a cell viability of 101%.

Same assay, conditions: 1000 nM; 72 h
With `O=C(O)C[C@@]1(O)C[C@@H](CCCCCCc2ccc(Cl)cc2Cl)OC1=O` the cell viability was 89.3%.

— the supplement of paper PMC8671470
